Several values for one entry are separate records, joined by “and”; a condition that tells them apart may be missing. Equal entries are not always repeated.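 How tested: cells in 96-well plates exposed to compound for 48 hours at five concentrations. The concentration for 50% growth inhibition is given as GI50. At the TGI there is no net growth.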

TGI and GI50 data for 15 molecules are collected here from PubChem BioAssay (NCI).

Some test systems named below: A549 NSCLC; HCT-116 colon; HOP-92 NSCLC; KM12 colon; OVCAR-4 ovarian; OVCAR-5 ovarian; SK-MEL-5 melanoma; SNB-19 CNS; UACC-257 melanoma; UO-31 renal.
Holding throughout (assay): NCI anticancer screen, dose series, 48 h

Regarding `Cc1cc(C)cc(NC(N)=S)c1`, the TGI in the test on A549 NSCLC, in the test with HCT-116 colon, with HOP-92 NSCLC, in the test on KM12 colon, in the test on OVCAR-4 ovarian and in the test with OVCAR-5 ovarian was > 100 µM each time. In addition, the TGI in the test on SK-MEL-5 melanoma, with SNB-19 CNS, in the test with UACC-257 melanoma and in the test with UO-31 renal was > 100 µM throughout.

Regarding `O=C1C(=O)c2cccnc2-c2ncccc21`, the GI50 in the test on A549 NSCLC is 1.04 µM; with HCT-116 colon it was 0.0401 µM; with HOP-92 NSCLC, 0.175 µM; in the test with KM12 colon it was 0.409 µM; in the test on OVCAR-4 ovarian, 0.139 µM; with OVCAR-5 ovarian, 0.328 µM. Also, the GI50 is 0.239 µM in the test on SK-MEL-5 melanoma, 0.236 µM in the test with SNB-19 CNS, 0.268 µM in the test with UACC-257 melanoma and 0.159 µM in the test with UO-31 renal. Further, the TGI in the test with A549 NSCLC was found to be 2.8 µM; with HCT-116 colon, 0.159 µM; in the test on HOP-92 NSCLC, 0.618 µM; with KM12 colon, 1.59 µM; in the test with OVCAR-4 ovarian, 0.268 µM; in the test on OVCAR-5 ovarian, 1.29 µM. The TGI in the test on SK-MEL-5 melanoma is 0.801 µM; in the test on SNB-19 CNS, 1.1 µM; with UACC-257 melanoma, 0.924 µM; in the test on UO-31 renal, 0.486 µM.

`Cc1cccc(NC(=O)c2cccc([N+](=O)[O-])c2O)c1C`: the TGI is > 100 µM in the test with A549 NSCLC; > 100 µM in the test with HCT-116 colon; 49.7 µM in the test on HOP-92 NSCLC; > 69.4 µM in the test on KM12 colon; > 100 µM in the test on OVCAR-4 ovarian; > 89.2 µM in the test with OVCAR-5 ovarian. In addition, the TGI in the test with SK-MEL-5 melanoma is 27.6 µM; in the test on SNB-19 CNS it was > 100 µM; in the test with UACC-257 melanoma, > 79.3 µM; with UO-31 renal it was 74.7 µM.

As for `O=C(O)C1CC(O)CN1` (centres undefined), the TGI in the test on A549 NSCLC, in the test with HCT-116 colon, in the test on HOP-92 NSCLC, in the test on KM12 colon, in the test on OVCAR-4 ovarian and in the test with OVCAR-5 ovarian was > 100 µM in each case. Also, the TGI with SK-MEL-5 melanoma, with SNB-19 CNS, in the test on UACC-257 melanoma and in the test with UO-31 renal was > 100 µM throughout.

In the case of `Cc1cn(-c2cc(NC(=O)c3ccc(C)c(Nc4nccc(-c5cccnc5)n4)c3)cc(C(F)(F)F)c2)cn1`, the GI50 in the test on A549 NSCLC was 5.31 µM and 2.68 µM; in the test on HCT-116 colon it was 4.26 µM and 2.06 µM; with KM12 colon, 3.81 µM and 2.72 µM; with OVCAR-4 ovarian, 5.15 µM and 2.39 µM; in the test with OVCAR-5 ovarian it was > 10 µM and 3.48 µM; in the test with SK-MEL-5 melanoma it was 1.73 µM. The GI50 in the test on SNB-19 CNS was > 10 µM and 13.1 µM; with UACC-257 melanoma it was 4.46 µM and 2.49 µM; in the test with UO-31 renal it was 1.75 µM and 1.58 µM. The TGI in the test with A549 NSCLC is > 10 µM and 7.76 µM; in the test on HCT-116 colon, > 10 µM and 7.79 µM; with HOP-92 NSCLC, > 100 µM; in the test on KM12 colon, > 10 µM and 9.49 µM; in the test with OVCAR-4 ovarian, > 10 µM and 7.32 µM; in the test on OVCAR-5 ovarian, > 10 µM and 16.4 µM. Besides, the TGI in the test with SK-MEL-5 melanoma is 7.01 µM; in the test on SNB-19 CNS, > 10 µM and 32.7 µM; in the test on UACC-257 melanoma, > 10 µM and 7.97 µM; with UO-31 renal, 8.9 µM and 4.56 µM.

Regarding `CCN(CC)c1ccc(N=Nc2ccc(-c3nc4ccc[n+](C)c4o3)cc2)cc1`, the TGI with A549 NSCLC was 27.1 µM; with HCT-116 colon, 16.3 µM; in the test on HOP-92 NSCLC, 33.4 µM; in the test with KM12 colon it was 24.5 µM; with OVCAR-4 ovarian, 25.2 µM; with OVCAR-5 ovarian, 16.3 µM. The TGI in the test on SK-MEL-5 melanoma amounted to 11 µM; in the test with SNB-19 CNS it was 26.1 µM; with UACC-257 melanoma, 20.2 µM; in the test with UO-31 renal, 25.4 µM.

As to `N#CC1CC2(CCN1C(=O)c1ccccc1)OCCO2` (centres undefined), the TGI with A549 NSCLC, with HCT-116 colon, in the test on HOP-92 NSCLC, in the test with KM12 colon, with OVCAR-4 ovarian and in the test with OVCAR-5 ovarian was > 100 µM each time. Moreover, the TGI in the test on SK-MEL-5 melanoma, in the test with SNB-19 CNS, in the test with UACC-257 melanoma and with UO-31 renal was > 100 µM in each case.

As to `Cc1ccc(O)c(NC(=O)c2ccc(CNc3ccnc(C(F)(F)F)c3)cc2)c1`, the GI50 in the test with A549 NSCLC is 12.9 µM; with HCT-116 colon, 13.7 µM; in the test on HOP-92 NSCLC, 5.11 µM; in the test with KM12 colon, 4.75 µM; in the test on OVCAR-4 ovarian it was 26.7 µM; in the test on OVCAR-5 ovarian, 16.3 µM. The GI50 was 4.07 µM in the test with SK-MEL-5 melanoma, 6.15 µM in the test on SNB-19 CNS, 12.2 µM with UACC-257 melanoma and 1.12 µM in the test with UO-31 renal. The TGI is > 100 µM in the test with A549 NSCLC; 37.4 µM in the test on HCT-116 colon; 29.8 µM in the test with HOP-92 NSCLC; 24.3 µM in the test on KM12 colon; > 100 µM in the test on OVCAR-4 ovarian; 69.1 µM in the test with OVCAR-5 ovarian. The TGI in the test with SK-MEL-5 melanoma worked out at 14.7 µM; in the test on SNB-19 CNS it was 48 µM; with UACC-257 melanoma it was 48.5 µM; in the test on UO-31 renal, 13.3 µM.

As for `CN(C)c1ccc(/C=C/c2cc[n+](C)c(/C=C/c3ccc(N(C)C)cc3)c2)cc1`, the GI50 is 0.334 µM in the test on A549 NSCLC; 0.278 µM in the test on HCT-116 colon; 0.174 µM with HOP-92 NSCLC; 0.33 µM with KM12 colon; 0.225 µM in the test on OVCAR-4 ovarian; 0.401 µM with OVCAR-5 ovarian. The GI50 in the test with SK-MEL-5 melanoma is 0.204 µM; in the test on SNB-19 CNS it was 0.322 µM; in the test on UACC-257 melanoma, 0.275 µM; with UO-31 renal, 1.81 µM. Further, the TGI stood at 10.6 µM with A549 NSCLC; 1.24 µM in the test on HCT-116 colon; 0.655 µM with HOP-92 NSCLC; 1.42 µM with KM12 colon; 1.01 µM in the test on OVCAR-4 ovarian; 14.2 µM in the test with OVCAR-5 ovarian. Further, the TGI came to 0.465 µM in the test with SK-MEL-5 melanoma, 2.95 µM in the test with SNB-19 CNS, 0.853 µM in the test with UACC-257 melanoma and 11.9 µM in the test with UO-31 renal.

As to `COc1ccccc1NC(=O)CC(=O)N/N=C/c1ccc(N(CCC#N)S(=O)(=O)c2ccccc2)cc1`, the TGI with A549 NSCLC, with HCT-116 colon, in the test on HOP-92 NSCLC, in the test on KM12 colon, in the test on OVCAR-4 ovarian and in the test on OVCAR-5 ovarian was > 100 µM throughout. Also, the TGI in the test with SK-MEL-5 melanoma, with SNB-19 CNS, in the test with UACC-257 melanoma and with UO-31 renal was > 100 µM throughout.

Turning to `CCCCCCCc1cc2c3c(nc4ccccc42)C(=O)c2cccnc2-c3n1`, the GI50 is 2.46 µM in the test on A549 NSCLC; 0.375 µM with HCT-116 colon; 6.34 µM in the test with HOP-92 NSCLC; 1.45 µM with KM12 colon; 5.74 µM with OVCAR-4 ovarian; 4.09 µM in the test with OVCAR-5 ovarian. The GI50 is 4.16 µM in the test on SK-MEL-5 melanoma, 2.17 µM in the test on SNB-19 CNS, 1.96 µM in the test on UACC-257 melanoma and 3.85 µM in the test with UO-31 renal. The TGI in the test with A549 NSCLC came to 11.9 µM; with HCT-116 colon it was 3.35 µM; in the test with HOP-92 NSCLC, 17 µM; in the test on KM12 colon, 3.11 µM; in the test with OVCAR-4 ovarian it was 13.8 µM; in the test with OVCAR-5 ovarian, 10.7 µM. For the same molecule, the TGI in the test with SK-MEL-5 melanoma was determined as 8.37 µM; with SNB-19 CNS it was 7.31 µM; with UACC-257 melanoma it was 3.46 µM; in the test with UO-31 renal it was 11 µM.

In the case of `CCOC(=O)c1[nH]c(COC(C)=O)c2c1CCCCCCCCCC2`, the TGI in the test with A549 NSCLC, in the test on HCT-116 colon, with HOP-92 NSCLC, in the test on KM12 colon, in the test on OVCAR-4 ovarian and with OVCAR-5 ovarian was > 100 µM throughout. Moreover, the TGI in the test on SK-MEL-5 melanoma, in the test with SNB-19 CNS, with UACC-257 melanoma and with UO-31 renal was > 100 µM throughout.

As to `C#CCOc1cccc(Nc2ncnc3cc(NC(=O)CCl)ccc23)c1`, the GI50 in the test on A549 NSCLC was 5.03 µM; in the test on HCT-116 colon, 1.96 µM; with HOP-92 NSCLC it was 12.4 µM; with KM12 colon it was 4.34 µM; with OVCAR-4 ovarian, 12.1 µM; in the test with OVCAR-5 ovarian, 10.3 µM. Moreover, the GI50 is 6.31 µM with SK-MEL-5 melanoma, 4.98 µM with SNB-19 CNS, 15.4 µM in the test with UACC-257 melanoma and 3.31 µM in the test on UO-31 renal. Moreover, the TGI was 17.9 µM with A549 NSCLC; 10.2 µM with HCT-116 colon; 27.3 µM in the test on HOP-92 NSCLC; 16.8 µM in the test with KM12 colon; 35.7 µM in the test on OVCAR-4 ovarian; 23 µM in the test with OVCAR-5 ovarian. In addition, the TGI with SK-MEL-5 melanoma was 19.4 µM; in the test with SNB-19 CNS, 18.4 µM; with UACC-257 melanoma it was 32.3 µM; with UO-31 renal, 15.7 µM.

As for `C=CCC1C(=O)CC2(C)CC(=O)C(CC=C)C12C` (centres undefined), the TGI in the test with A549 NSCLC, in the test on HCT-116 colon, in the test on HOP-92 NSCLC, in the test on KM12 colon, with OVCAR-4 ovarian and with OVCAR-5 ovarian was > 100 µM in each case. Besides, the TGI with SK-MEL-5 melanoma, in the test with SNB-19 CNS, with UACC-257 melanoma and in the test on UO-31 renal was > 100 µM in each case.

For the molecule `CC1(C)C2C=CC1C(=O)CC2` (centres undefined), the TGI in the test on A549 NSCLC, with HCT-116 colon, in the test on HOP-92 NSCLC, in the test on KM12 colon, in the test with OVCAR-4 ovarian and in the test on OVCAR-5 ovarian was > 100 µM each time. The TGI in the test on SK-MEL-5 melanoma, with SNB-19 CNS, in the test with UACC-257 melanoma and in the test with UO-31 renal was > 100 µM each time.
